Laboratory results: patent US12226375B1, “Method of treatment and selection of patients benefiting from agomelatine based on EEG measurements” (Alto Neuroscience, Inc., priority 2023, dated 2025)

Columns and labels:
circadian rhythm = details: due to melatonergic agonism; cited from earlier work
[1] = tested on: patients with major depressive disorder; assay: Open-label trials of adjunctive agomelatine 25 mg at bedtime in MDD (NCT05118750, NCT05157945): MADRS change by EEG-predicted response; assay type: in vivo, human
Method: The inventors conducted two parallel open-label clinical trials of agomelatine at 25 mg once at bedtime in patients with major depressive disorder (NCT05118750 and NCT05157945, whose data was pooled in these analyses). […] Patients were evaluated over the course of eight weeks of treatment.
EEG data were collected at rest (encompassing both eyes open and eyes closed conditions) prior to treatment using a 19-channel EEG system covering the conventional 10-20 electrode locations. A total of 107 patients with moderate to severe depression (MADRS≥20 and PHQ-9≥10) had EEG data (107 with eyes open (REO) EEG, 105 with eyes closed (REC) EEG). Quality control assessments were conducted, yielding 105 REO patient datasets and 103 REC patient datasets. […] The training dataset consisted of 60 REO patient datasets and 60 REC patient datasets. The holdout set consisted of 49 REO patient datasets and 46 REC patient datasets.
In order to compile these individual signals into a single EEG composite entropy model for prediction of treatment outcome, the inventors conducted 10-fold cross-validated machine learning using elastic net regularization against an outcome of high versus low response to agomelatine. […]
The Cohen's d effect sizes at these weeks are all >0.4, indicating a substantial effect size for the prediction, especially considering that the meta-analytically calculated all-comer (i.e., unselected depression patients) effect size for the difference in treatment response to agomelatine (as monotherapy) versus placebo is d=0.26 (Cipriani et al., Lancet., 2018, 391 (10128): 1357-1366, PMID: 29477251).
Given the approximate 50% prevalence of positivity on the EEG machine learning model, one can estimate the agomelatine-placebo difference in EEG-predicted agomelatine responders by adding the all-comer effect size (d=0.26) to the enrichment in EEG-predicted responders over the all-comer population. This enrichment is calculated by halving the effect size between EEG-predicted responders and non-responders, since the average of these two groups is the all-comer population. […]

[2] = tested on: unselected depression patients; details: meta-analytically calculated; cited from earlier work
sleep measures = details: in contrast to an SSRI which did not change these measures; cited from earlier work

Structure (SMILES)	effect on circadian rhythm (circadian rhythm)	Cohen's d effect size, predicted responders vs non-responders, change in MADRS scores ([1]; EEG sample entropy machine learning model, cross-validation left-out data of training dataset, all weeks (FIG. 2A))	Cohen's d, predicted agomelatine responders versus non-responders, observed change in MADRS scores ([1]; EEG sample entropy model, holdout dataset, weeks 4, 6 and 8 (FIG. 2B))	MADRS change, high vs low Pz low-gamma sample entropy patients ([1]; Pz electrode, 30-40 Hz, z≥0.27, full study sample, all weeks (FIG. 2C))	all-comer effect size d, treatment response to agomelatine (as monotherapy) versus placebo [2]	sleep measures assessed using actigraphic measurements (sleep measures)
COc1ccc2cccc(CCNC(C)=O)c2c1 [agomelatine, N-[2-(7-methoxynaphthalen-1-yl)ethyl]acetamide]	phase advance circadian rhythm	> 0.4	> 0.4	strong and statistically significant prediction of treatment outcome across all weeks	0.26	improve sleep measures
COc1ccc2[nH]cc(CCNC(C)=O)c2c1 [melatonin]	phase advance circadian rhythm					
